PubChem BioAssay (NCI)
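Cultured in 96-well plates, cells were exposed to test compound for 48 hours across five concentrations. Here, GI50 denotes the concentration required for 50% inhibition of growth. TGI denotes the concentration required for complete inhibition of growth.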

What was measured:
Assay in all cases: NCI tumour cell line growth inhibition, 48 h
[1] = test system: SNB-75 CNS
[2] = test system: NCI-H460 lung
[3] = test system: DU-145 prostate
[4] = test system: HCT-116 colon
[5] = test system: EKVX NSCLC
[6] = test system: COLO 205 colon
[7] = test system: SN12C renal
[8] = test system: PC-3 prostate
[9] = test system: A549 NSCLC
[10] = test system: CAKI-1 renal

Compound	GI50 [1] [µM]	TGI [1] [µM]	GI50 [2] [µM]	TGI [2] [µM]	GI50 [3] [µM]	GI50 [4] [µM]	TGI [4] [µM]	GI50 [5] [µM]	TGI [5] [µM]	GI50 [6] [µM]	TGI [6] [µM]	GI50 [7] [µM]	TGI [7] [µM]	GI50 [8] [µM]	TGI [8] [µM]	GI50 [9] [µM]	TGI [9] [µM]	TGI [3] [µM]	TGI [10] [µM]	GI50 [10] [µM]
COC(=O)[C@@H](C)C[C@H](Cc1cn(C)c2ccccc12)NC(=O)c1csc([C@@H](C[C@H](C(C)C)N(C)C(=O)[C@@H](NC(=O)[C@H]2CCCCN2C)C(C)C)OC(C)=O)n1	0.00887	> 14	0.0101	> 6.11	0.00811	0.00707	> 16.7	0.044	> 16.7	0.00788	0.0859	0.0232	> 16.7	0.0139	> 16.7	0.0338	> 16.7			
Nc1cc(F)ccc1CC(=O)O		> 100					> 100		> 100		> 100		> 100		> 100		> 100	> 100	> 100	
O=C1c2[nH]cc(CNC3CN4CCC3CC4)c2C(=O)c2c1c(O)c1ccccc1c2O (stereo not given)	16.2	44.6			0.714	0.37	2.65	16.1	33.1	2.05	9.56	1.06	15.5	1.21	3.41	6.31	47.4	7.21	2.05	0.612
CC[C@H]1CN2CCc3cc(OC)c(OC)cc3C2C[C@@H]1CC1NCCc2cc(OC)c(OC)cc21 (stereo not given in full)				0.112			0.0491		0.136		0.017		0.289		0.275		0.0523	0.105	0.292	
CCC(CC)c1nc(Nc2ccc(C(=O)OC)cc2)c2ccccc2n1			19.9	> 50	> 22.7	12.9	> 28.6	15.9	> 29.4	8.2	15	7.83	16.3	7.8	17.1	10.2	27.2	> 31.1	11.8	5.74
CCOC(=O)c1ccc2c(c1)Cc1cc([N+](=O)[O-])ccc1-2				> 100			> 100		50.6		78.6		> 100		> 100		> 100	> 100	> 100	
COc1cc(/C=C2\C[C@H]3[C@@H]4CC=C5C[C@@H](O)CC[C@]5(C)[C@H]4CC[C@]3(C)[C@H]2O)ccc1OCCN1CCCC1			13.5	36.2	5.04	8.27	24.8	0.104	7.38	12.9	> 50	8.48	17.9	7.4	15.1	10.9	21.6	14.4	22.1	10.2
COc1ccc(/C=C(/C(=O)N2CCN(c3ccccc3)CC2)c2cc(OC)c(OC)c(OC)c2)cc1N	0.22	> 100	0.364	> 100	0.531	0.356	> 100	0.561	> 100	0.362	2.43	0.643	> 100	0.414	> 100	0.68	> 100	> 100		
CSc1ccc(-c2ccccc(=O)c2O)cc1	3.12	> 100	0.371	10.8	0.849	0.506	37.4	0.28	3.96	1.98	> 100	0.878	30.3	0.748	> 100	0.896	83.8	> 100		
NCCCNc1nc2ccccc2c2c(=O)c3cc(F)cc(F)c3sc12	1.36	2.7	1.58	3.14	1.71	1.67	3.28	1.6	3.12	1.92	4.62	1.68	3.27	1.67	3.24			3.19	4.18	1.86
CC[C@@H]1[C@@H](C)O[C@@](O)([C@@H](C)[C@H](O)[C@H](C)[C@H]2OC(=O)/C=C/C=C/[C@H](C)[C@@H]([C@@H](C)[C@@H](O)[C@H](C)[C@@]3(O)C[C@@H](O[C@H]4C[C@@H](O)[C@H](O)C(C)O4)[C@H](CC)[C@@H](C)O3)OC(=O)/C=C/C=C/[C@@H]2C)C[C@H]1O[C@@H]1C[C@@H](O)[C@H](O)C(C)O1 (stereo not given in full)	0.0495	0.149	0.0569	0.115	0.0732	0.0688	0.165	0.11	0.468	0.0795	0.179	0.0584	0.126	0.0568	0.147	0.112	0.344	0.169		
